From BindingDB's records for patent US11053253 (Achillion Pharmaceuticals, 2021)

Target: Complement factor D (Homo sapiens, UniProt P00746)
Test: Human Factor D Assay
Procedure: Human Factor D (purified from human serum, Complement Technology, Inc.) at 80 nM final concentration is incubated with test compound at various concentrations for 5 min at room temperature in 50 mM Tris, 1M NaCl, pH 7.5. A synthetic substrate Z-L-Lys-SBzl and DTNB (Ellman's reagent) are added to final concentrations of 100 µM each. Absorbance at 405 nm (A405) is recorded at 30 second intervals for 30 minutes using a microplate spectrophotometer. IC50 values are calculated by nonlinear regression of Complement Factor D reaction rates as a function of test compound concentration.

Chain of Complement factor D (P00746 whole entry): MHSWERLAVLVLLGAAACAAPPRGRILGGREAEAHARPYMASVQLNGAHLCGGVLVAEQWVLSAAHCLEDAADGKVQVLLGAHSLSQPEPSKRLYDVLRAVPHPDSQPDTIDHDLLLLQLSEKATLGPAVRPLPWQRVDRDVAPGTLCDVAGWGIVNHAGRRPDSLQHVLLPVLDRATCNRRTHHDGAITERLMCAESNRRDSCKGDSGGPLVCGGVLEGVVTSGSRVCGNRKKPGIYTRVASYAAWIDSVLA

Compound | IC50 [nM]
CC(=O)c1nn(CC(=O)N2[C@H]3C[C@]4(C[C@@H]24)Cn2ccc(n2)/C=C/COCc2ccc(Br)nc2NC3=O)c2ccc(-c3cnc(C)nc3)cc12 [US11053253, Cmp No. T-67] | < 1000
CC(=O)c1nn(CC(=O)N2[C@H]3C[C@]4(C[C@@H]24)Cn2ccc(n2)/C=C/COCc2ccc(Br)nc2NC3=O)c2cnc(-c3cnc(C)nc3)cc12 [US11053253, Cmp No. T-68] | < 1000
CC(=O)c1nn(CC(=O)N2[C@H]3C[C@@]4(COCC=CCOCc5cc(Br)nc(c5)NC3=O)C[C@@H]24)c2cnc(-c3cnc(C)nc3)cc12 [US11053253, Cmp No. T-83] | < 1000
CC(=O)c1nn(CC(=O)N2[C@H]3C[C@@]4(C=CCCCN(C)S(=O)(=O)Cc5ccc(Br)nc5NC3=O)C[C@@H]24)c2ccc(-c3cnc(C)nc3)cc12 [US11053253, Cmp No. T-215] | < 1000
CC(=O)c1nn(CC(=O)N2[C@H]3C[C@@]4(C=CCCCN(C)S(=O)(=O)Cc5ccc(Br)nc5NC3=O)C[C@@H]24)c2c(C)cc(-c3cnc(C)nc3)cc12 [US11053253, Cmp No. T-216] | < 1000
